Assay results published in article PMC12366525, “Characterization of allosteric modulators that disrupt androgen receptor co-activator protein-protein interactions to alter transactivation–Drug leads for metastatic castration resistant prostate cancer” (SLAS discovery : advancing life sciences R & D, 2023).

Experiments:
AR-LBD = target: T1, AR-LBD (Homo sapiens, UniProt P10275); assay: H^3-DHT radioligand competition binding assay; conditions: 10 nM H^3-DHT, recombinant His6-AR-LBD
T1 construct: The pET28a-AR-LBD (622–919) construct [78] was a gift; made in house
T1 sequence (P10275 622-919): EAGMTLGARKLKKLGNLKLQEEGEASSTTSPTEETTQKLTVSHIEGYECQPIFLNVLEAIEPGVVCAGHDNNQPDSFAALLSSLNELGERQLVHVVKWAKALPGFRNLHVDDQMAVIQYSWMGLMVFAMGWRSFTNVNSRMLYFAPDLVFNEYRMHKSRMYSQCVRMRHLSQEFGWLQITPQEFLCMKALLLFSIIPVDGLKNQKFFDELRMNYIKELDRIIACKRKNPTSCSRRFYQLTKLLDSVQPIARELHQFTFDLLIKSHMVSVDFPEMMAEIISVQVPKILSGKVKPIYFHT
Protocol: The His6-AR-LBD H^3-DHT competition binding assay has been described previously. Briefly, 96-well Cu^2+-coated plates (ThermoFisher) were incubated overnight at 4 °C with 5 μg per well His6-AR-LBD in 100 μL of PBS. Unbound His6-AR-LBD was aspirated, the plate was washed 3 × with 100 μL of 0.05% Tween 20 in PBS and then blocked with 100 μL of 1 mg/mL BSA in PBS for 1 h. After three more washes with 100 μL of PBS and 0.05% Tween 20, 40 μL of PBS was added to wells followed by 5 μL each of diluted compounds and 100 nM H^3-DHT transferred into the wells using a Matrix pipettor. Compounds were tested between 0.098 to 50 μM in the presence of 10 nM H^3-DHT. After 1 h, compounds and H^3-DHT were aspirated and washed 3 × with 0.05% Tween 20 in PBS; 100 μL of Microscint™−20 micro-scintillation cocktail buffer (Perkin Elmer, Waltham, MA) was added to each well, plates were sealed with adhesive plastic covers; and the counts per minute (CPMs) were captured in a TopCount NXT microtiter plate reader (Perkin Elmer, Waltham, MA).

PSA = assay: Dot blot of PSA secretion by C4–2 cells; format: cell-based, human; conditions: 10 nM DHT 24 h; 20 μM compound 3 h pre-exposure
Protocol: To determine PSA secretion levels, C4–2 cells were seeded at 1.4 × 10 [5] cells/well in 12-well plates and treated as described above for PSA cell expression experiments. […] 500 μL of conditioned media supernatant was added to the wells of 96-well to Bio-blot apparatus (BioRad, Hercules, CA) containing a nitrocellulose membrane and was allowed to pass through and attach to the membrane under gravity for 3–4 h at room temperature. The membrane was washed 1x with 500 μL TBS under vacuum, blocked with 1% BSA in TBST for 1 h, and then incubated overnight at 4 °C with the primary rabbit anti-hPSA antibody (Cell Signaling, Danvers, MA) diluted 1:1000 in TBST plus 1% BSA. Dot blots were washed 3x in 10 mL of TBST for 10 min, then incubated for 1 h with secondary goat anti-rabbit-IgG HRP conjugated antibody (Invitrogen, Carlsbad, CA) diluted 1:10,000 in TBST plus 1% Bovine Serum Albumin (BSA), washed 3x with 10 mL of TBST for 10 min, and then developed with Pierce ECL western blotting substrate. Images of ECL dot blots were acquired on an iBright 1500 imaging system and quantified by iBright image analysis software.

AR = target: T2, AR (Homo sapiens, UniProt P10275, T878A); assay: AlphaScreen cellular thermal shift assay (CETSA) for AR in C4–2 cells; format: cell-based; conditions: for Effect on AR thermal stability, AlphaScreen CETSA: 1 h at 37 °C prior to heat shock at 46 °C, hits and enzalutamide 20 μM, DHT 10 nM; for Effect on maximum efficacy of DHT-enhanced AR thermal stabilization / Right shift of the DHT EC50 for AR thermal stabilization: 20 or 50 μM compound pre-treatment
T2 construct: DHT-induced full length AR directed TA; endogenous in cells; host or cells: C4–2 castration resistant prostate cancer cells
T2 sequence (P10275 1-920 T878A): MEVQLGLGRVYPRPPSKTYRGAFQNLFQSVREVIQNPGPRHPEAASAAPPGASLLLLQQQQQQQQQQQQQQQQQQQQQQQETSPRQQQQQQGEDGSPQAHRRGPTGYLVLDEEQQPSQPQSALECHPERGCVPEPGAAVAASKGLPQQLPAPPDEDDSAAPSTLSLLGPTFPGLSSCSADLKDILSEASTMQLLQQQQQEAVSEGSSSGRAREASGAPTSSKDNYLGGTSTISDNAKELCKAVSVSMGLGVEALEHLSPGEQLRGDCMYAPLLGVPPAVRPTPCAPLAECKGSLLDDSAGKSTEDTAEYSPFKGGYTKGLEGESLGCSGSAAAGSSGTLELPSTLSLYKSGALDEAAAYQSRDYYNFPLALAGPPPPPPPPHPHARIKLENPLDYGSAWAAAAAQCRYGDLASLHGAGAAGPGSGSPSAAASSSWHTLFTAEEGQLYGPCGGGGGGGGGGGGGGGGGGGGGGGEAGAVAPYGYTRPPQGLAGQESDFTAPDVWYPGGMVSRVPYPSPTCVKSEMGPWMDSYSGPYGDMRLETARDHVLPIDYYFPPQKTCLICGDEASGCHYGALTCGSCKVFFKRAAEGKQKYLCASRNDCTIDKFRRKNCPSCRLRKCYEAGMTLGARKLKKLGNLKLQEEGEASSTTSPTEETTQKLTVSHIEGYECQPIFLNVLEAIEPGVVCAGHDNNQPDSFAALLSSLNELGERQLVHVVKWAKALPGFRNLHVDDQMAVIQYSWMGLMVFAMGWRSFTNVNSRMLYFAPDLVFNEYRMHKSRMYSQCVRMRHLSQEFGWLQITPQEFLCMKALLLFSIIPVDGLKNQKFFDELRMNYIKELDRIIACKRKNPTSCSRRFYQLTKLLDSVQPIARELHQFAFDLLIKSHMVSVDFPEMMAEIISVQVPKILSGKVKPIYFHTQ
Protocol: Mouse anti-hAR (BD Biosciences, San Jose, CA) and rabbit anti-hAR (MilliporeSigma, Burlington, MA) were diluted 1:330 and 1:1000 fold respectively in PBS containing 0.5 mg/mL BSA and 4 μL of the combined diluted AR antibody pair were added to 4 μL of the cell lysate supernatant in a 384-well plate and incubated in the dark for 30 min at room temperature. To each well of the 384-well plate 4 μL of a combined solution of anti-mouse IgG Alpha Donor and anti-rabbit IgG (Fc specific) AlphaLISA Acceptor beads suspended in 1x lysis buffer was added to yield a final donor and acceptor bead concentrations of 40 μg/mL and 10 μg/mL respectively.

Row | Structure (SMILES) | IC50 (AR-LBD) [µM] | C4-2 cell supernatants PSA Dot Blot, relative to DMSO (100%) (PSA) [%] | Effect on AR thermal stability, AlphaScreen CETSA (AR) | Effect on maximum efficacy of DHT-enhanced AR thermal stabilization (AR) | Right shift of the DHT EC50 for AR thermal stabilization (AR) [fold]
1 | Cc1ccccc1-c1cc(O)c2c(c1)CN(c1nc(C(N)=O)cs1)CCO2 [S1–1] | 43.7 | 57.7 | did not stabilize AR in the AlphaScreen assay but blocked DHT-enhanced AR thermal stabilization | – | –
2 | Cc1ccccc1-c1cc(O)c2c(c1)CN(c1nccs1)CCO2 [S1–3] | > 100 | – | – | – | –
3 | Cc1nsc(NC(=O)N2CCC(Sc3ccccc3C)CC2)n1 [S2–6] | – | 12.8 | did not stabilize AR in the AlphaScreen assay but blocked DHT-enhanced AR thermal stabilization | reduced the maximum efficacy of DHT-enhanced AR thermal stabilization | > 10
4 | Cc1c(-c2ccccc2F)[nH]c2ccc(CNC(=O)CCc3cn[nH]c3)cc12 [S3–11] | – | 25.5 | did not stabilize AR in the AlphaScreen assay but blocked DHT-enhanced AR thermal stabilization | at 50 μM reduced the maximum efficacy of DHT | ≥ 10
5 | Cc1c(-c2ccccc2F)[nH]c2ccc(CNC(=O)c3ccc(CO)o3)cc12 [S3–14] | 62.9 | – | – | – | –
